# Test results reported in patent US6004972A, “Therapeutic process for the treatment of the pathologies of type II diabetes” (The Board of Supervisiors of Louisiana State University and …, priority 1998, dated 1999).
# Where “and” joins values, the source holds several entries; their conditions need not be identical. Identical values can stand only once.
# Legend:
# Type II diabetes [1] = experiment: Oral bromocriptine in a person treated with diabenase (Example 3); format: in vivo, human
# Protocol: A person was being treated with a hypoglycemic agent (diabenase) which had reduced the blood glucose of the patient from 250 mg/dl to about 180 mg/dl during one year of treatment. […] Removal of the hypoglycemic agent allowed glucose levels to rise and remain near 100 mg/dl (a normal level) in the succeeding two months.
# symptoms of diabetes = experiment: Oral bromocriptine in a diabetic (Example 2); format: in vivo, human; conditions: 1.25-2.50 mg/day orally just after awakening
# Protocol: At the beginning of the treatment, blood glucose concentration was shown by routine testing to be near 250 mg/dl. […] Fasting levels below 120 mg/dl are considered normal.
# Type II diabetes [2] = experiment: Oral bromocriptine in a diabetic (Example 4); format: in vivo, human; conditions: parlodel 2.5 mg/day orally, 2.5 months
# Protocol: A person weighing nearly 300 pounds was known to be a diabetic but had resisted all previous admonitions for treatment. […] Body weight has dropped 22 pounds and plasma glucose levels decreased to 160 mg/dl.
# adult female pigs = experiment: Effects of bromocriptine implants on fat stores and plasma triglyceride, glucose and insulin in pigs; format: in vivo, pig (swine)
# Protocol: (§1) Adult female pigs, six in number, were given bromocryptine implants (10 mg/pig/day) lasting over a period of time while the pigs were subjected to daily periods of daylight and darkness (12:12). […] A control group of six pigs were similarly treated to periods of daylight and darkness except that no bromocryptine was administered to the pigs of the control group. The period of darkness was from 1800 to 0600, and the period of daylight from 0600 to 1800. Daily tests were made of the blood of the pigs at four hour intervals over a 14 day period to determine the plasma cortisol level (μg/dl) and plasma prolactin level […] of both groups. The average for each series of tests made on each group are given as follows:
# Notes: Backfat thickness was used as an index in determining fat stores.
# Plasma was sampled at 1600, 2000 and 2400 after two weeks of treatment. Each pig of the treatment group and control group was sampled.
# [3] = tested on: noninsulin dependent (Type II) diabetes; experiment: Timed oral bromocriptine in fifteen persons with noninsulin dependent (Type II) diabetes (Example 5); format: in vivo, human; conditions: for Body Fat Loss / Plasma Glucose (% initial) / Skinfold Measurements (% initial): p < 0.05
# Protocol: The participants were carefully instructed not to alter their daily activity or eating habits during the course of treatment.
# Skinfold thickness was measured on the left side of the body by a trained anthropometrist in four regions: biceps, triceps, subscapular, and suprailiac, following the recommendations of the International Biological Program. Because of its frequent use, percent body fat was estimated from the common logarithm of the sum of the four skinfolds, using the equations of Durnin and Rahman and of Siri. […] Skinfold measurements were taken initially and at weekly intervals by the same individual. Blood pressure was also determined at these times. Morning fasting plasma glucose in the diabetic group was determined initially and after 4-8 weeks.
# [4] = tested on: circadian rhythms of plasma cortisol and prolactin in adult female pigs; experiment: Circadian plasma cortisol and prolactin levels in pigs given bromocriptine implants; format: in vivo, pig (swine); conditions: for Plasma Cortisol Level: implant 10 mg/pig/day
# Protocol: as §1, with “follows: […]” for “follows:”
# body fat stores = conditions: injections at different times of day; cited from earlier work
# [5] = parlodel 1.25-2.5 mg/day orally
# [6] = subjects on hypoglycemic drugs (8), 4-8 weeks
# [7] = subjects receiving insulin (7), 4-8 weeks
molecule,measurement,setting,value
CCCNC(=O)NS(=O)(=O)c1ccc(Cl)cc1 [diabenase],blood glucose level,"Type II diabetes [1]; diabenase alone, one year of treatment, from 250 mg/dl",about 180 mg/dl
"CC(C)C[C@H]1C(=O)N2CCC[C@H]2[C@]2(O)O[C@](NC(=O)[C@@H]3C=C4c5cccc6[nH]c(Br)c(c56)C[C@H]4N(C)C3)(C(C)C)C(=O)N12 [bromocriptine, 2-bromo-alpha-ergocryptine]",reduction of body weight,symptoms of diabetes,about 12%
same,reduction of indices of body fat,symptoms of diabetes,about 12%
same,blood glucose concentration,"symptoms of diabetes; successive levels in following weeks, initial near 250 mg/dl",180 mg/dL and 155 mg/dL and 135 mg/dL and 97 mg/dL and 101 mg/dL
same,blood glucose level,"Type II diabetes [1]; after removal of hypoglycemic agent, succeeding two months",~100 mg/dL
same,reduction of body fat,Type II diabetes [1]; [5],about 10%
same,reduction of body weight,Type II diabetes [1]; [5],about 10%
same,blood glucose level,"Type II diabetes [1]; parlodel 1.25-2.5 mg/day orally, about an hour after awakening, with diabenase, 2 weeks, from about 180 mg/dl",80 mg/dL
same,plasma glucose level,Type II diabetes [2]; initial near 350 mg/dl,160 mg/dL
same,drop in body weight,"Type II diabetes [2]; two to three hours after awakening, initial nearly 300 pounds",22 pounds
same,Backfat,"adult female pigs; 10 mg/day/pig implant, 28 days after treatment",86 % control
same,Triglyceride (plasma),"adult female pigs; 10 mg/day/pig implant, two weeks, sampled 1600, 2000 and 2400, control 52 ± 8",27 ± 3 mg/dL
same,Glucose (plasma),"adult female pigs; 10 mg/day/pig implant, two weeks, sampled 1600, 2000 and 2400, control 99 ± 5",86 ± 3 mg/dL
same,reduction in plasma insulin concentration,adult female pigs; implant,not statistically significant
same,reduction of body fat stores,"adult female pigs; implant, 28 day period of treatment",14%
same,reduction of plasma glucose levels,"adult female pigs; implant, early period of darkness (2000-2400)",13%
same,reduction of plasma triglyceride concentration,"adult female pigs; implant, near sunset",48%
same,transient anorexic effects,"[3]; 1.25 mg for 2-3 days then 2.5 mg daily, oral",did not occur
same,"mild nausea, participants","[3]; 1.25 mg for 2-3 days then 2.5 mg daily, oral, transient, first few days",< 10%
same,reductions in body fat,[3]; after 6 weeks without food restriction,4.4 % of the body weight
same,blood glucose concentrations and skinfold measurements,"[3]; all subjects, 4-8 weeks",reduced in every diabetic subject
same,doses of hypoglycemic drugs and insulin,[3]; during bromocriptine treatment,reduced in three other subjects
same,oral hypoglycemic medication discontinued,[3]; during bromocriptine treatment,completely discontinued during bromocriptine treatment in three individuals
same,"fat loss, average",[3]; present study,1.4 pounds per week
same,"Body Fat, final","[3]; subjects on hypoglycemic drugs (8), 4-8 weeks, initial 36.5 ± 2.3, p < 0.05",32.9 ± 2.0 % Body Weight
same,"Plasma Glucose, final (fasting)","[3]; subjects on hypoglycemic drugs (8), 4-8 weeks, initial 231 ± 19, p < 0.05",166 ± 19 mg/dL
same,"Total Body Weight, final","[3]; subjects on hypoglycemic drugs (8), 4-8 weeks, initial 255 ± 21",253 ± 20 pounds
same,Loss of Body Weight,"[3]; subjects on hypoglycemic drugs (8), 4-8 weeks, not statistically significant",-2.4 ± 2.0 pounds
same,Body Fat Loss,[3]; [6],-10.0 ± 2.2 pounds
same,Plasma Glucose (% initial),[3]; [6],72 ± 6 % initial
same,Skinfold Measurements (% initial),[3]; [6],79 % initial
same,Loss of Body Weight,[3]; [7],-0.4 ± 2.0 pounds
same,"Body Fat, final","[3]; subjects receiving insulin (7), 4-8 weeks, initial 33.4 ± 2.2, p < 0.05",31.7 ± 1.7 % Body Weight
same,Body Fat Loss,[3]; [7],-3.1 ± 0.9 pounds
same,Plasma Glucose (% initial),[3]; [7],65 ± 8 % initial
same,Skinfold Measurements (% initial),[3]; [7],84 % initial
same,mean loss of body fat,"[3]; subjects taking hypoglycemic drugs, 4-8 weeks",10 pounds
same,mean reduction in skinfold measurements,"[3]; subjects taking hypoglycemic drugs, four regions, 4-8 weeks",21%
same,reduction of body weight,"[3]; subjects taking hypoglycemic drugs, not statistically significant",2.4 pounds per subject
same,decline in total body fat,"[3]; subjects taking hypoglycemic drugs, within 4 to 8 weeks",10.7%
same,reduction in % body fat,[3]; subjects taking insulin,5.1
same,reduction in body fat,[3]; subjects taking insulin,3.1 pounds
same,reduction in skinfold,[3]; subjects taking insulin,16%
same,reduction of body weight,[3]; subjects taking insulin,not at all reduced
same,blood glucose levels after termination of bromocriptine,"[3]; three individuals off oral hypoglycemic medication, at least two months after bromocriptine terminated",< 120 mg/dL
same,phase relationships of the circadian rhythms of plasma corticosteroid and prolactin concentrations,[4]; implant,altered the phase relationships
same,Plasma Cortisol Level,"[4]; LD 12:12, time 0400, control 5.5",3.2 µg/dL
same,Plasma Cortisol Level,"[4]; LD 12:12, time 0800, control 4.8",1.9 µg/dL
same,Plasma Cortisol Level,"[4]; LD 12:12, time 1200, control 3.4",1.5 µg/dL
same,Plasma Cortisol Level,"[4]; LD 12:12, time 1600, control 1.6",3.2 µg/dL
same,Plasma Cortisol Level,"[4]; LD 12:12, time 2000, control 1.9",2.8 µg/dL
same,Plasma Cortisol Level,"[4]; LD 12:12, time 2400, control 2.7",3.5 µg/dL
"Prolactin: a hormone secreted by the pituitary (protein, UniProt P01236 29-227, looked up) Prolactin: LPICPGGAARCQVTLRDLFDRAVVLSHYIHNLSSEMFSEFDKRYTHGRGFITKAINSCHTSSLATPEDKEQAQQMNQKDFLSLIVSILRSWNEPLYHLVTEVRGMQEAPEAILSKAVEIEEQTKRLLEGMELIVSQVHPETKENEIYPVWSGLPSLQMADEESRLSAYYNLLHCLRRDSHKIDNYLKLLKCRIIHNNNC",stimulation of fattening,body fat stores,stimulate fattening only when injected at certain times of the day
